Each structure is given as a SMILES string. Like-named read-outs stand apart in the source and are kept apart here.

The subject of this assay is Sprague-Dawley rats. Kind of assay: CFA-induced paw radiant heat hypersensitivity. Format: in vivo, rat. The settings on record: po, rat; for inhibition in vivo at 30 mg/kg: 30 mg/kg p.o., read-out: % Reversal. As to the method: Intraplantar injection of Complete Freund's Adjuvant (CFA) in rodents results in a long-lasting inflammatory reaction, characterized by a pronounced hypersensitivity to both thermal and mechanical stimuli. This hypersensitivity peaks between 24-72 hours following injection and can last for several weeks. […] This paradigm also may be conducted with a multiple dosing or a prophylactic dosing regime designed to alter the course of hyperalgesia development. This test predicts the analgesic, anti-allodynic and antihyperalgesic effect of numerous effective clinical agents, including NSAIDS such as acetaminophen, aspirin and ibuprofen, and opioids such as morphine.
Each rat was placed in a test chamber on a warm glass surface and allowed to acclimate for approximately 10 minutes. A radiant thermal stimulus (beam of light) was then focused through the glass onto the plantar surface of each hind paw in turn. The thermal stimulus was automatically shut off by a photoelectric relay when the paw was moved or when the cut-off time was reached (20 seconds for radiant heat at ˜5 Amps). An initial (baseline) response latency to the thermal stimulus was recorded for each animal prior to the injection of CFA. Twenty-four hours following intraplantar CFA injection, the response latency of the animal to the thermal stimulus was then re-evaluated and compared to the animal's baseline response time. […] Immediately following the post-CFA latency assessment, test compound or vehicle (usually Solutol, hydroxypropyl methylcellulose, hydroxypropyl beta-cyclodextrin or PEG-400) was administered i.p. or p.o. to rats. […] The percent reversal (% R) of hypersenstivitiy was calculated according to the following formula:
% Reversal=(Treatment Response-CFA Response)/(Baseline Response-CFA Response)×100.

As usually defined, the ED50 is the dose that gives a 50% effect, or the effect in half of the subjects. In the case of `CC(C)OP(=O)(OC(C)C)[C@@H](Cc1ccc(F)c(F)c1)c1sc2ccccc2c1Br` [Cpd 234, (S)-[1-(3-Bromo-benzo[b]thiophen-2-yl)-2-(3,4-difluoro-phenyl)-ethyl]-phosphonic acid diisopropyl ester], the inhibition in vivo at 30 mg/kg amounted to 75% (time 1 h) and 56% (time 2 h (printed 2 h or 2)). Also, for the setting “p.o., read-out: ED50”, the 50% effective dose (ED50) turned out to be 6.6 mg/kg.

Values taken from patent US20080287398A1, “COLD MENTHOL RECEPTOR-1 ANTAGONISTS” (priority 2007, published 2008).
